Read-outs that look alike come from different tables or passages of the source.
Legend:
gastric acid secretion [1] = test: Inhibition of gastric acid secretion in gastric fistula beagle dogs (histamine-stimulated); type: in vivo; conditions: Canis lupus familiaris, 4 h, histamine-stimulated, four-hour period, read-out: Gastric-Fistula Beagle % Inhibition (3 mg/kg dose)
Outline: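 Conscious, 18 h-fasted female beagles with gastric (or duodenal) cannulas received compound i.v., i.g. or i.d. after a 30-min basal period, then 4 h i.v. histamine dihydrochloride at 15 mcg/kg/h. Gastric volume, acid concentration and total acid output collected every 30 min; percent inhibition versus controls, ED50 from dose-response curves.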

gastric acid secretion [2] = test: Inhibition of gastric acid secretion in meal-stimulated Pavlov pouch dog; type: in vivo, beagle dogs; conditions: 3 mg/kg, four-hour period
Description: Adult female beagle dogs weighing 6 to 10 kilograms were obtained from Laboratory Research Enterprises (Kalamazoo, Mich.) or from Hazelton Research Animals (Cumberland, Va.). Surgical implantation of a Thomas-type gastric cannula into an innervated Pavlov pouch of each dog was performed by the method reported by L. Burrows et al., J. Surgical Res., 4, 147 (1964). After recovery from surgery, the dogs were trained to stand quietly, fully conscious, in Pavlov-type dog restraining slings. All dogs were deprived of food, but not water, for 24 hours prior to each assay. Basal acid secretion was measured by collecting from the cannulas for 30 minutes before dosing with a test compound. Solutions of the test compounds in iso-osmotic phosphate buffer (pH 7.4) were given either intravenously or directly into the Pavlov pouch. After 30 minutes the pouch was drained. The dogs were then fed 320 grams of dog food and gastric acid secretions were collected each half hour for four hours. Controls were determined in the same way except that only food (i.e., no test compound) was administered.
Data were analyzed for three different variables: volume of gastric juice, acid concentration, and total acid output. Percent inhibition for the four-hour experimental period was determined for each parameter by comparison with 3 to 4 controls. Estimates of ED50 were determined from dose response curves.

HCMV (strain AD169) = test: Antiviral assay: HCMV antigen ELISA in infected human foreskin fibroblasts (MRHF); type: cell-based, human cytomegalovirus; conditions: Human betaherpesvirus 5, Fibroblast; MRHF cells, HCMV AD169, moi 0.2, 96 hours; read-out: HCMV cell EC50
Excerpt: These complimentary assays tested the ability of a compound to inhibit the production of new virus and the toxicity of the compound to the host cells. It was important that both assays be performed simultaneously in order to compare the results directly since, toxicity may indirectly reduce viral yield.
Viral yield was estimated by measuring the amount of a viral antigen produced 4 days post infection with a monoclonal antibody to an abundant “immediate early” viral protein. An enzyme-linked (horseradish peroxidase) secondary antibody specific to the primary (mouse) antibody was used to measure the amount of viral antigen. Test compounds were diluted to 2-times the desired final concentration in DMEM+5% FBS. One hundred microliters of this solution was placed in each well of a 96-well plate. This was performed once for the antiviral 96-well plate and again for a cytotoxicity plate. Two controls were also included for both plates; a no drug control and a ganciclovir control. Ganciclovir was included because it has known antiviral activity for HCMV. All cells were prepared by harvesting human foreskin fibroblasts, MRHF, with trypsin and re-suspending at a concentration of 5×10^5 cells per ml in DMEM. Infected cells were prepared by infecting these with HCMV (strain AD169) at a multiplicity of infection=0.2. One hundred microliters of uninfected cells (5×10^4 cells) were added to the appropriate wells of the cytotoxicity plate. In a similar manner 100 μl of infected cells (5×10^4 cells) were added to the appropriate wells of the antiviral plate. Additionally, uninfected cells not treated with test compound were included as controls on the antiviral plate. Plates were incubated for 96 hours at 37° C. in 5% CO2 atmosphere and processed to measure the amount of viral antigen and toxicity.
The following was performed on the antiviral plate only. Media was removed and cells were fixed with 1:1 acetone:methanol for 15 minutes at −20° C. Fixative was removed and cells were washed once with PBS containing 0.05% Tween20. In order to block nonspecific binding of antibodies each well was incubated with PBS containing 3% (w/v) bovine serum albumin (BSA) for 1 hour at 22° C. The blocking solution was removed and the cells were washed once with PBS containing 0.05% Tween20 before incubating with 1:100 dilution of primary antibody in PBS containing 3% BSA for 2 hours at 22° C. The primary antibody was a monoclonal antibody (mouse source) specific to the immediate early nuclear antigen of HCMV and was commercially available (Dupont). The 10 antibody solution was removed and the plate was rinsed 5 times with PBS containing 1% (v/v) Triton X-100 (PBST) before incubating with secondary antibody diluted 1:1000 in PBS containing 3% BSA for 2 hours at 22° C. The secondary antibody (goat source) recognized the murine-specific determinants of the 1° antibody and was covalently linked to horseradish peroxidase (Sigma). The plate was rinsed 5 times with PBST and once with deionized water before adding 100 μl TMB substrate solution and incubating 30 minutes at 22° C. The reaction was stopped by adding 100 μL of phosphoric acid and the OD at 450 nm recorded. TMB (3,3′,5,5′ tetramethylbenzidine) was the substrate for the horseradish peroxidase linked to the 2° antibody. […] Antiviral activity was calculated by comparing the amount of viral antigen produced in drug treated wells with that produced in wells absent of drug.

SMILES	inhibition in vivo at 3 mg/kg (gastric acid secretion [1]; iv, 3 mg/kg i.v.) [%]	Pavlov-Pouch Dog % Inhibition (dose (mg/kg)) (gastric acid secretion [2])	EC50 (HCMV (strain AD169)) [µM]	inhibition in vivo at 3 mg/kg (gastric acid secretion [1]; intraduodenal, 3 mg/kg i.d.) [%]
COc1ccc(N)c(C[S+]([O-])c2nc3ccccc3[nH]2)c1 (stereo not drawn) [Example 20, 2-[(1H-Benzimidazol-2-ylsulfinyl)methyl]-4-methoxybenzenamine]	37	22 (3 mg/kg) %	–	–
Cc1ccc2[nH]c([S+]([O-])Cc3ccccc3N)nc2c1 (stereo not drawn) [Example 41, 2-[[(5-Methyl-1H-benzimidazol-2-yl)sulfinyl]-methyl]benzenamine]	–	–	59	–
Nc1ccccc1C[S+]([O-])c1nc2cc(Cl)ccc2[nH]1 (stereo not drawn) [Example 43, 2-[[(5-Chloro-1H-benzimidazol-2-yl)sulfinyl]-methyl]benzenamine]	–	–	23	–
Cc1ccc(C[S+]([O-])c2nc3ccccc3[nH]2)c(N)c1C (stereo not drawn) [Example 53, 2-[(1H-Benzimidazol-2-ylsulfinyl)methyl]-5,6-dimethylbenzenamine ¼ hydrate]	–	–	13	79
COc1ccc2[nH]c([S+]([O-])Cc3c(N)cc(C)c(OC)c3C)nc2c1 (stereo not drawn) [Example 78, 2-[[(5-Methoxy-1H-benzimidazol-2-yl)sulfinyl]methyl]-4-methoxy-3,5-dimethylbenzenamine]	–	–	22	31
COc1ccc2[nH]c([S+]([O-])Cc3ncc(C)c(OC)c3C)nc2c1 (stereo not drawn) [omeprazole, reference compound]	–	–	93	–

From patent US6906078B2, “Method of using (H+/K+) ATPase inhibitors as antiviral agents” (Pharmacia Corporation, priority 1994, dated 2005)
